pIC50: −log10 of the molar value.
Columns and labels:
Vasopressin V2 = Vasopressin V2 Antagonist Activity in Conscious Hydrated Rats; assay type: in vivo, rat; conditions: 10 mg/kg orally, AVP 0.4 μg/kg i.p.; for Osmolality: urine
Procedure: Two to four rats are used for each compound. One hour later, arginine vasopressin (AVP, antidiuretic hormore, ADH) dissolved in peanut oil is administered at 0.4 μg/kg intraperitoneally. Two rats in each test would not receive arginine vasopressin but only the vehicle (peanut oil) to serve as water-loading control. Twenty minutes later each rat is given 30 mL/kg of deionized water orally by gavage and is placed individually in a metabolic cage equipped with a funnel and a graduated glass cylinder to collect urine for four hours. Urine volume is measured and osmolality analyzed by use of a Fiske One-Ten osmometer (Fiske Assoc., Norwood, Mass., USA). Urinary sodium, potassium, and chloride are analyzed by use of ion-specific electrodes in a Beckman E3 (Electrolyte 3) Analyzer. In the following results, […] and decreased osmolality relative to AVP-control indicates activity.

Vasopressin V1 = Vasopressin V1 Antagonist Activity in Conscious Rats (vasopressin vasopressor response); assay type: in vivo, rat; conditions: 10 mg/kg iv; for Max % Inhibition: vasopressin vasopressor response
Procedure: Vasopressin V1 Antagonist Activity in Conscious Rats Conscious rats are restrained in a supine position with elastic tape. The area at the base of the tail is locally anesthetized by subcutaneous in filtration with 2% procaine (0.2 ml). Using aseptic technique the ventral caudal tail artery is isolated and a cannula made of PE 10 and 20 (heat-fused) tubing is passed into the lower abdominal aorta. The cannula is secured, heparinized (1000 i.u./cc), sealed and the wound closed with one or two stitches of Dexon 4-0. The caudal vein is also cannulated in the same manner for intravenous drug administration. The duration of the surgery is approximately 5 minutes. Additional local anesthesia (2% procaine or lidocaine) is provided as needed. The animals are placed in plastic restraining cages in an upright position. The cannula is attached to a Statham P23Db pressure transducer and pulsatile blood pressure is recorded. […] Percentage of antagonism by the compound is calculated using the pre-drug vasopressin vasopressor response as 100%. The results of this test on representative compounds of this invention in which the dose, the maximum % inhibition and the time in minutes, are shown in Table III.

Rat Hepatic V1 Receptors = target: T1, Rat Hepatic V1 Receptors (Rattus norvegicus, UniProt P30560); assay: Binding Assay to Rat Hepatic V1 Receptors; conditions: rat hepatic V1 (no asterisk)
T1 construct: Rat liver plasma membranes expressing the vasopressin V1 receptor subtypes; from tissue; host or cells: rat liver plasma membranes (sucrose density gradient)
T1 sequence (P30560 whole entry): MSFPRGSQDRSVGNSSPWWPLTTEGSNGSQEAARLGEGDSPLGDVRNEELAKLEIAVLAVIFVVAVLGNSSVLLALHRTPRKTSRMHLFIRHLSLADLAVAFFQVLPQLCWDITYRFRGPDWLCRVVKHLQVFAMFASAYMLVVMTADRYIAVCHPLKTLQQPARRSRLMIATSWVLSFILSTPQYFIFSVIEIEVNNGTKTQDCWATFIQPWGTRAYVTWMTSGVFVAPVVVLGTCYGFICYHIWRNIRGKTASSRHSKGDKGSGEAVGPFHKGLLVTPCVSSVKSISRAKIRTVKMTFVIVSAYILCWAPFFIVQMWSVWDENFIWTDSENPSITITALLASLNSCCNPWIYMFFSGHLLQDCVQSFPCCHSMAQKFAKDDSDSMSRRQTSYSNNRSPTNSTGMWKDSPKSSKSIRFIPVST
Procedure: Binding Assay to Rat Hepatic V1 Receptors
Rat liver plasma membranes expressing the vasopressin V1 receptor subtypes are isolated by sucrose density gradient according to the method described by Lesko et al., (1973). These membranes are quickly suspended in 50.0 mM Tris.HCl buffer, pH 7.4, containing 0.2% bovine serum albumin (BSA) and 0.1 mM phenylmethylsulfonylfluoride (PMSF) and kept frozen at -70° C. until used in subsequent binding experiments. […]
For test compounds, these are solubilized in 50% dimethylsulfoxide (DMSO) and added in 20.0 μl volume to a final incubation volume of 200 μl. […] The radioactivity trapped on the filter disk by the ligand-receptor complex is assessed by liquid scintillation counting in a Packard LS Counter, with an efficiency of 65% for tritium. The data are analyzed for IC50 values by the LUNDON-2 program for competition (LUNDON SOFTWARE, Ohio).

[1] = target: T2, Rat Kidney Medullary V2 Receptors (Rattus norvegicus, UniProt Q00788); assay: Binding Assay to Rat Kidney Medullary V2 Receptors; conditions: rat kidney medullary V2 (no asterisk)
T2 construct: Medullary tissues from rat kidneys are dissected out; from tissue; host or cells: rat kidney medulla membranes
T2 sequence (Q00788 whole entry): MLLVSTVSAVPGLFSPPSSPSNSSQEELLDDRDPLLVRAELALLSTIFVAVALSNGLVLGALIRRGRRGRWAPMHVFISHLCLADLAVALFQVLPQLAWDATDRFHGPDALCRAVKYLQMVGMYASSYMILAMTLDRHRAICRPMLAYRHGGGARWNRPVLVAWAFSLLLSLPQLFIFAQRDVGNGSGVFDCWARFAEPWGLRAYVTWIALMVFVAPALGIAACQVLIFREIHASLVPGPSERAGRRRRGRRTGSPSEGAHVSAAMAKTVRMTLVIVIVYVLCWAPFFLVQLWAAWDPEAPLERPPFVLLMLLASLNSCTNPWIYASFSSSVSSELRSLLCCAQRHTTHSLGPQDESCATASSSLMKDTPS
Procedure: Binding Assay to Rat Kidney Medullary V2 Receptors
Medullary tissues from rat kidneys are dissected out, cut into small pieces and soaked in a […] sodium chloride solution containing 1.0 mM EDTA with many changes of the liquid phase, until the solution is clear of blood. The tissue is homogenized in a 0.25M sucrose solution containing 1.0 mM EDTA and 0.1 mM PMSF using a Potter-Elvehjem homogenizer with a teflon pestle. The homogenate is filtered through several layers (4 layers) of cheese cloth. The filtrate is rehomogenized using a dounce homogenizer, with a tight fitting pestle. The final homogenate is centrifuged at 1500× g for 15 min. […] The protein content is determined by the Lowry's method (Lowry et al., J. Biol. Chem., 1953). […]
For binding experiments, the following is added in μl volume to wells of a 96 well format of a microtiter plate: 100.0 μl of 100.0 mM Tris.HCl buffer containing 0.2% heat inactivated BSA, 10.0 mM MgCl2 and a mixture of protease inhibitors: leupeptin, 1.0 mg %; aprotinin, 1.0 mg %; 1,10-phenanthroline, 2.0 mg %; trypsin inhibitor, 10.0 mg % and 0.1 mM PMSF, 20.0 μl of [^3 H] […] Non-specific binding is assessed in the presence of 1.0 μM of unlabeled ligand, added in 20 μl volume. […] The data are analyzed for IC50 values by the LUNDON-2 program for competition (LUNDON SOFTWARE, Ohio).

Compound | Urine Volume (Vasopressin V2) [ml/4 hrs] | Osmolality (Vasopressin V2) [mOsm/kg] | Time (of maximum % inhibition) (Vasopressin V1) [min] | Max % Inhibition (Vasopressin V1) [%] | pIC50 (Rat Hepatic V1 Receptors) | pIC50 [1]
O=C(c1ccc(-c2cc(F)cc(F)c2)cc1)N1Cc2cccn2Cc2ccccc21 [Example 3, 10,11-Dihydro-10-[4-(3,5-difluorophenyl)benzoyl]-5H-pyrrolo[2,1-c][1,4]benzodiazepine] | 5.9 | 1205 | 30 | 92 | – | –
O=C(c1ccc(-c2ccccc2)cc1)N1Cc2ccnn2Cc2ccccc21 [Example 7, 5-([1,1'-Biphenyl]-4-ylcarbonyl)-5,10-dihydro-4H-pyrazolo[5,1-c][1,4]benzodiazepine] | 7.5 | 1005 | 30 | 90 | – | –
O=C(c1ccc(-c2ccccc2C(F)(F)F)cc1)N1Cc2cccn2Cc2ccccc21 [Example 8] | 8 | 887 | – | – | 6.17 | 5.48
O=C(c1ccc(-c2ccccc2)cc1)N1Cc2cccn2Cc2ccccc21 [Example 19, 10-([1,1'-Biphenyl]-4-ylcarbonyl)-10,11-dihydro-5H-pyrrolo[2,1-c][1,4]benzodiazepine] | 3.5 | 1598 | 30 | 60 | – | –
O=C(c1ccc(-c2ccccn2)cc1)N1Cc2cccn2Cc2ccccc21 [Example 9, 10,11-Dihydro-10-[4-(2-pyridinyl)benzoyl]-5H-pyrrolo[2,1-c][1,4]benzodiazepine] | 8.3 | 857 | 30 | 70 | 6.40 | 5.92

— US5521173A, “Tricyclic benzazepine vasopressin antagonists” (American Home Products Corporation, priority 1995, dated 1996)
